Laboratory results reported in patent EP2775836B1, “METHODS FOR TREATING GOUT FLARES” (CymaBay Therapeutics, Inc., priority 2011, dated 2013).
Values belong to the compound of their own block, whether it stands above or below them.

What was measured:
[1] = tested on: high sensitivity C-Reactive Protein (hs-CRP); test: Phase 1 multiple-dose study M102-0507: change in hs-CRP in type 2 diabetic patients on Glynase; assay type: in vivo, human
Experimental: Data presented in FIGS. 6 and 7 were generated based on a single-center, Phase 1, randomized, single-blind, multiple-dose study (M102-0507) evaluating the effect of (-)-halofenate given to type 2 diabetic patients who were receiving a stable dose of Glynase® (micronized glyburide). Eligible patients were initially dosed for 3 days with Glynase® 3 mg/day, and if safety and tolerability were acceptable to the Investigator, the dose was increased to Glynase® 6 mg/day for 4 days, followed by 14 days of Glynase® 6 mg and either (-)-halofenate 400 mg or 600 mg administration until Day 21, the patients were discharged on Day 22.
In this study, change in high sensitivity C-Reactive Protein (hs-CRP) from baseline was one of the endpoints. […] At Day 22, the mean percentage changes in C-reactive protein compared to Day 1 were -21.1% and -32.9% in Group 1 ((-)-halofenate 400 mg) and Group 2 ((-)-halofenate 600 mg), respectively.

serum uric acid [2] = test: Phase 1 multiple-dose study MBX102-2DM01011b: serum uric acid after daily oral dosing for 10 days; assay type: in vivo, human; details: for Mean % change: Day 9 vs baseline; for Mean change at Day 9: change from baseline; for Mean uric acid at Day 9: healthy adult subjects
Experimental: Methods used in relation to FIG. 3 showing reduction in serum uric acid in subjects over time following once daily dosing with arhalofenate were as follows.
A single centre, Phase 1, placebo- and positive-controlled, double-blind, randomized, dose escalation study (MAD study, MBX102-2DM01011b) was conducted to evaluate the multiple-dose pharmacokinetics (PK) of (-)-halofenate administered as a daily dose orally for 10 days, at the protocol-specified doses in healthy adult subjects. A total of 119 subjects completed study treatment according to protocol: 6 subjects received MBX-102 100 mg/day for 10 days; 6 subjects received MBX-102 200 mg/day for 10 days; 9 subjects received MBX-102 400 mg/day for 10 days; 20 subjects received MBX-102 600 mg/day for 10 days; 10 subjects received MBX-102 600 mg Enteric Coated (EC) /day for 10 days; 9 subjects received MBX-102 800 mg EC/day for 10 days; 10 subjects received MBX-102 1000 mg EC/day for 10 days; 24 subjects received placebo treatment daily for 10 days; and 25 subjects received naproxen 500 mg b.i.d. monotherapy for 7 days. In this study, serum uric acid was measured at screening and on Days 1, 3, 5, 7, 9, 14, and 21.

3T3-L1 adipocytes = test: Example 1: suppression of uric-acid induced inflammation in vitro; assay type: cell-based, murine; details: 50-150 µM, uric acid 5 or 15 mg/dL, 3 or 7 days
Experimental: Differentiated murine 3T3-L1 adipocytes are cultured in vitro in 24 well plates. To the culture medium (-)-halofenic acid is added at a final concentration of 50- 150 µM prior to the addition of uric acid at 5 mg/dL or 15 mg/dL and the culture continued for 3 or 7 days. A parallel culture of cells is conducted in the presence of a vehicle such as dimethylsulfoxide (DMSO). At the end of the culture period media is removed, cells are isolated and messenger RNA prepared. The levels of secreted cytokines representing a panel of pro-inflammatory cytokines including but not restricted to monocyte chemoatractant protein-1 (MCP-1), tumor necrosis factor α (TNF-α), interlekin-1β, (IL-1β), interleukin-6 (IL-6) and interleukin-12 (Il-12) are determined in the media isolated from the cells using commercially available cytokine assay kits. The levels of gene expression for the mRNAs for a panel of pro-inflammatory cytokines including but not restricted to monocyte chemoatractant protein-1 (MCP-1), tumor necrosis factor α (TNF-α), interlekin-1β, (IL-1β), interleukin-6 (IL-6) and interleukin-12 (Il-12) are determined using real-time PCR. […] A similar study is also conducted in primary mouse macrophages and human umbilical vein endothelial cells.

serum uric acid [3] = details: monotherapy at 40, 80, 120, 160 and 240 mg/day, gout patients; cited from earlier work
IL-1β = IL-1β mRNA and secretion in LPS stimulated primary mouse macrophages; assay type: cell-based; details: 75 and 150 µM, 1 hour before 100 ng/mL LPS for 8 hours
Experimental: Methods used in relation to FIGS. 4-5 showing effects of (-)-halofenic acid IL-1β were as follows:
Eight week-old male C57BL/6J mice were injected intra-peritoneally with 2.5 mL of 3% thioglycollate. Three days after injection, mice were sacrificed by cervical dislocation. Macrophages were harvested immediately by injecting 5 mL of PBS into the intra-peritoneal cavity, surgically exposing the intra-peritoneal cavity and aspirating the intra-peritoneal fluid with a 1 mL syringe. Macrophages from multiple animals were pooled and centrifuged at 1500 rpm, 10 min at 4 °C. Contaminating red blood cells were removed from the pellet by lysis with 10 mL RBC lysis buffer for 5min at room temperature, followed by centrifugation at 1500 rpm, 10 min at 4 °C. The cells were washed once and re-suspended in RPMI 1640, 10% FBS/0.1% Pen/Strep and plated into multi-well plates (1,000,000 cells/well for 24 well plates and 100,000 cells/well for 96 well plates). The cells were cultured for 30 hours, re-fed with fresh RPMI 1640, 0.5% FBS and incubated overnight. […]
The cells were harvested in Qiazol lysis solution for gene expression analysis. […] The Ct values for IL-1β were determined using ABI Sequence Detection Software. […] The fold change is then calculated using the formula 2^-[delta][delta]Ct. […]

[4] = Plasma concentration of (-)-halofenic acid after daily oral 400 mg arhalofenate (LC-MS/MS); assay type: in vivo, human
Experimental: Methods used in relation to FIGS. 1-2 showing the pharmacokinetic profile of (-)-halofenic acid were as follows:
Plasma proteins in human plasma samples containing of (-)-halofenic acid, an internal standard (I.S.) and heparin as the anticoagulant were precipitated with acetonitrile. The samples were vortex mixed, centrifuged and an aliquot was analyzed by reversed phase high performance liquid chromatography using a Phenomenex Polar RP column maintained at 45 °C. The mobile phase was nebulized using heated nitrogen in a Z-spray source/interface and the ionized compounds were detected using a tandem quadrupole mass spectrometer.
The plasma concentrations were rounded to the nearest one-tenth µg/mL before the calculations. Plasma samples with concentrations below the quantifiable limit of 1.0 µg/mL (BQL) were assigned values of zero.

[5] = 600 mg Enteric Coated (EC)/day for 10 days

Structure (SMILES): CC(=O)NCCOC(=O)[C@H](Oc1cccc(C(F)(F)F)c1)c1ccc(Cl)cc1 [(-)-halofenate, (-)-(R)-(4-chloro-phenyl)-(3-trifluoromethyl-phenoxy)-acetic acid 2-acetylamino-ethyl ester]
Day 22 hs-CRP ([1]; (-)-halofenate 600 mg/day Day 8-21 with Glynase 6 mg/day, type 2 diabetic patients): 4.4 | mean percentage change in C-reactive protein at Day 22 compared to Day 1 ([1]; Group 1: 400 mg/day Day 8-21 with Glynase 6 mg/day): -21.1% | Mean % change from Day 8 (Day 22 hs-CRP) ([1]; Group 2: 600 mg/day Day 8-21 with Glynase 6 mg/day, Day 8 = Glyburide only phase): -33.3% | Mean % change (serum uric acid [2]; 400 mg/day orally for 10 days): -21% | Mean change at Day 9 (serum uric acid [2]; 400 mg/day orally for 10 days): -1.02 mg/dL | Mean uric acid at Day 9 (serum uric acid [2]; 400 mg/day orally for 10 days): 3.89 mg/dL | Mean % change (serum uric acid [2]; [5]): -30% | Mean change at Day 9 (serum uric acid [2]; [5]): -1.69 mg/dL | Mean uric acid at Day 9 (serum uric acid [2]; [5]): 3.92 mg/dL | Mean % change (serum uric acid [2]; 600 mg/day orally for 10 days): -33% | Mean change at Day 9 (serum uric acid [2]; 600 mg/day orally for 10 days): -1.65 mg/dL | Mean uric acid at Day 9 (serum uric acid [2]; 600 mg/day orally for 10 days): 3.40 mg/dL | Mean % change (serum uric acid [2]; 800 mg EC/day for 10 days): -32% | Mean change at Day 9 (serum uric acid [2]; 800 mg EC/day for 10 days): -1.77 mg/dL | Mean uric acid at Day 9 (serum uric acid [2]; 800 mg EC/day for 10 days): 3.83 mg/dL | Mean % change (serum uric acid [2]; 1000 mg EC/day for 10 days): -45% | Mean change at Day 9 (serum uric acid [2]; 1000 mg EC/day for 10 days): -2.44 mg/dL | Mean uric acid at Day 9 (serum uric acid [2]; 1000 mg EC/day for 10 days): 3.04 mg/dL | reduction in serum uric acid (serum uric acid [2]; all dose levels tested, dose dependent, over a period of time): gradual reduction | expression and secretion of panel of pro-inflammatory cytokines (3T3-L1 adipocytes): reduced level of expression and consequently secretion | uptake of uric acid into 3T3-L1 adipocytes (3T3-L1 adipocytes): prevents the uptake of uric acid

Structure (SMILES): O=c1[nH]cnc2c(CN3C[C@H](CO)[C@@H](O)C3)c[nH]c12 [BCX4208, 7-(((3R,4R)-3-hydroxy-4-(hydroxymethyl)pyrrolidin-1-yl)methyl)-3H-pyrrolo[3,2-d]pyrimidin-4(5H)-one]
serum uric acid (serum uric acid [3]): rapidly and significantly reduced

intraday plasma concentration ([4]; Day 15 and Day 30, daily oral 400 mg arhalofenate, FIG. 2): relatively constant | half-life ([4]; plasma, daily oral 400 mg arhalofenate for 30 days, FIGS. 1-2): long half-life
Structure (SMILES): O=C(O)C(Oc1cccc(C(F)(F)F)c1)c1ccc(Cl)cc1 (single isomer, unassigned; (-)) [(-)-halofenic acid, (-)-4-chlorophenyl-(3-trifluoromethylphenoxy) acetic acid]
messenger RNA encoding the pro-inflammatory cytokine IL-1β (IL-1β; FIG. 4): lower the messenger RNA | secretion of the pro-inflammatory cytokine IL-1β (IL-1β; FIG. 5): lowering the secretion
